One series has as its system Ca Ch. Put plainly: CVS panel, Ca channel. The text has this: (§1) The compounds of the invention/examples may have advantages associated with in vitro potency, kill kinetics (i.e. bactericidal effect) in vitro, PK properties, food effect, safety/toxicity (including liver toxicity, coagulation, […]), metabolic stability, Ames II negativity, MNT negativity, aqueous based solubility (and ability to formulate) and/or cardiovascular effect e.g. on animals (e.g. anesthetized guinea pig). The data below that was generated/calculated may be obtained using standard methods/assays, for instance that are available in the literature or which may be performed by a supplier (e.g. Microsomal Stability Assay—Cyprotex, Mitochondrial toxicity (Glu/Gal) assay —Cyprotex, as well as literature CYP cocktail inhibition assays). In some instances, GSH was measured (reactive metabolites, glucuronidation) to observe if a dihydrodiol is observed by LCMS (fragmentation ions), which would correspond to a dihydroxylation on the core heterocycle.

Another series concerns Na Ch. The series can be described thus: CVS panel, Na channel.
Another series concerns the target hERGdof (Homo sapiens, UniProt Q12809). Put plainly: CVS panel, hERGdof. The conditions noted are these: read-out: CVS hERGdof, IC50. The class given is binding.
The test system of series [1] is Cyp-450 (cocktail, isoforms not named). Put plainly: Cocktail Cyp-450 inhibition. Type of series: in vitro ADME.
Text: as §1

For series [2] the following is noted: in vivo.
A short description of series [3]: in vitro. The following applies: mouse, hepatocytes.
Another series has as its target Kinase panel. Put plainly: Kinase panel. Type of series: biochemical.
A short description of series [4]: in vitro. The conditions noted are these: human.
The next series is described as follows: in vivo. The conditions noted are these: rat, po, 5 mg/kg. As for the experimental part: Oral Bioavailability of Compound 161 in Rat
Compound 161 was administer PO in rat (5 mg/kg, PEG4000 (sol.), 0.5 w/v Methocel (susp.) and the following results were obtained for the solution and suspension.

A further series in a line: physchem. The conditions noted are these: thermodynamic from solid.
Series [5] in a line: in vitro. The conditions noted are these: mouse.
The nature of series [6]: in vitro. The conditions noted are these: dog, hepatocytes.
Series [7] is described as follows: in vitro. The following applies: rat, hepatocytes.
The subject of another series is Cyp 3A4. The series can be described thus: Cyp 3A4 induction. The conditions noted are these: at 1 μM.
Series [8] can be described thus: Mitochondrial toxicity (Glu/Gal) assay. The class given is cell-based.
Text: as §1

Series [9] concerns Mycobacterium tuberculosis strain EH4.0 expressing green-fluorescent protein (GFP). Put plainly: microbe, parasite or virus in culture. The following applies: 168 h, read-out: pIC50 (converted). The class given is cell-based.
Series [10] is described as follows: in vitro. The conditions noted are these: human, hepatocytes.
Another series can be described thus: AMES II. Type of series: cell-based.
Text: as §1

Another series has as its system M. tuberculosis H37Rv. The following applies: M. tuberculosis H37Rv inside macrophages; J. Medicinal Chemistry, 2014, 57 (12), pp 5293-5305; cited from earlier work.

Molecules are shown by their SMILES. Values after ≈ are worked out from the molar mass of the structure shown.

Chain of hERGdof (Q12809 whole entry, canonical isoform): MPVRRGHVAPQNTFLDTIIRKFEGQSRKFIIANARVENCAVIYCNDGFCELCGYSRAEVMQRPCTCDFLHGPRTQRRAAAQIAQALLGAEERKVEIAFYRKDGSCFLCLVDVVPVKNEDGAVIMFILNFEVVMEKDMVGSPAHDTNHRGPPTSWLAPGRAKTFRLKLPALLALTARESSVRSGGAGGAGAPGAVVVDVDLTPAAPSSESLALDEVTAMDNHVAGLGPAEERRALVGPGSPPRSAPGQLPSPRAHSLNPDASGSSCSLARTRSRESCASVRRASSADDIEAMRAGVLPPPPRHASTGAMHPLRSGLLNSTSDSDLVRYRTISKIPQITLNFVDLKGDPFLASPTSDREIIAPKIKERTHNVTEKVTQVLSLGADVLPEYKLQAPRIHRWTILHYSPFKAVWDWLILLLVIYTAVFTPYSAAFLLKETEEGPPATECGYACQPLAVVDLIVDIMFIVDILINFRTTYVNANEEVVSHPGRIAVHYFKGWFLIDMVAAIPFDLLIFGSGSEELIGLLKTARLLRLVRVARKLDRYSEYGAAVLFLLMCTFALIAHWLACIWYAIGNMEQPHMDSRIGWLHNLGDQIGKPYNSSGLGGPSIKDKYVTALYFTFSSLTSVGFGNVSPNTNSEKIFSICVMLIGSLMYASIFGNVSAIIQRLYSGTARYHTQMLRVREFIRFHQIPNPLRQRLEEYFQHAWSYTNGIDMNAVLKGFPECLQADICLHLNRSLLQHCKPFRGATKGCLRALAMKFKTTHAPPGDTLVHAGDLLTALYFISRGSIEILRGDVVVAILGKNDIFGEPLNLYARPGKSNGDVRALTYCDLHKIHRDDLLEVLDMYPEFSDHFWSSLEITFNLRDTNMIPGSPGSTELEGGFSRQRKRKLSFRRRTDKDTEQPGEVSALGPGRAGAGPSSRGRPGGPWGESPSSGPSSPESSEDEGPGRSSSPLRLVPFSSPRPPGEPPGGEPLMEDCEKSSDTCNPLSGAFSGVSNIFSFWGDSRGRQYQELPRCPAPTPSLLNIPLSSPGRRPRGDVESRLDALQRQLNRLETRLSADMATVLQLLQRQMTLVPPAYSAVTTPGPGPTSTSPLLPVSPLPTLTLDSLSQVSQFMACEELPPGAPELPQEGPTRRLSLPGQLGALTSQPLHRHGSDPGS

For `CCc1nc2ncc(C)cn2c1C(=O)NCc1ccc(N2CCN(S(=O)(=O)C(F)(F)F)C=N2)c(F)c1` [Compound 161], the IC50 in the series with Ca Ch was more than 10 µM; in the series on Na Ch, more than 10 µM; at hERGdof it was 15.8 µM; in [1] it was more than 20 µM; in [9], 0.000776 µM. In series [2], the “bioavailability (as shown in rodents)” value is reported as “good bioavailaibility”. Moreover, the hepatocyte CLint (in general, the capacity of the preparation to metabolise the compound, expressed as a volume cleared per time) in the series “in vitro [3]” was 12 µL/min/1e6 cells; in the series “in vitro [6]” it was 4.7 µL/min/1e6 cells; in the series “in vitro [7]” it was 19 µL/min/1e6 cells; in the series “in vitro [10]”, 6.7 µL/min/1e6 cells. The Kinase panel result on Kinase panel is recorded as “negative”. Also, the values for the free fraction (fraction unbound) in the series “in vitro [4]” and in “in vitro [5]” were 0.015 and 0.0245, respectively. Moreover, the AUC0-inf in the series “in vivo” stood at 5610 ± 2747 ng·h/mL; in “in vivo” (AUC0-inf) it was 10900 ± 1720 ng·h/mL. Moreover, the highest level in “in vivo” (Cmax) (Cmax) was 1230 ± 406 ng/mL. In addition, in “in vivo” (Tmax), the Tmax (commonly the time from dosing to the highest level) is 4 h. In addition, the half-life (usually how long it takes for the measured level to halve) in the series “in vivo” (t1/2) is 3.55 ± 0.45 h. In addition, the solubility (thermodynamic) (usually the concentration in solution at equilibrium with solid) in “physchem” (fassif) was 5 µg/mL (≈ 9.48 µM); in “physchem” (fessif), 16 µg/mL (≈ 30.3 µM); in the series “physchem” (pH 2, simulated gastric fluid), 33 µg/mL (≈ 62.6 µM); in the series “physchem” (pH 7, aqueous buffer), less than 0.02 µg/mL. For the same compound, in the series on Cyp 3A4, the “Cyp 3A4 induction (% control)” value worked out at 3.0 % control. For the same compound, the “Glu/Gal assay ratio (mitotoxicity)” value in series [8] was less than 3. In addition, the “AMES II” value in the series “AMES II” is recorded as “negative”.

As for `CCc1nc2ccc(Cl)cn2c1C(=O)NCc1ccc(N2CCC(c3ccc(OC(F)(F)F)cc3)CC2)cc1` [Compound Q203], the MIC50 in the series with M. tuberculosis H37Rv was 0.28 nM (≈ 0.156 ng/mL).

These data come from patent publication US20220340564A1, “ANTIBACTERIAL COMPOUNDS” (Janssen Sciences Ireland Unlimited Company, priority 2019, published 2022).
